According to ChEMBL document CHEMBL5727469, “Inhibitors of the renal outer medullary potassium channel” (2019):

Biological target: T1, ATP-sensitive inward rectifier potassium channel 1 (Homo sapiens, UniProt P48048)
T1 sequence (P48048 whole entry): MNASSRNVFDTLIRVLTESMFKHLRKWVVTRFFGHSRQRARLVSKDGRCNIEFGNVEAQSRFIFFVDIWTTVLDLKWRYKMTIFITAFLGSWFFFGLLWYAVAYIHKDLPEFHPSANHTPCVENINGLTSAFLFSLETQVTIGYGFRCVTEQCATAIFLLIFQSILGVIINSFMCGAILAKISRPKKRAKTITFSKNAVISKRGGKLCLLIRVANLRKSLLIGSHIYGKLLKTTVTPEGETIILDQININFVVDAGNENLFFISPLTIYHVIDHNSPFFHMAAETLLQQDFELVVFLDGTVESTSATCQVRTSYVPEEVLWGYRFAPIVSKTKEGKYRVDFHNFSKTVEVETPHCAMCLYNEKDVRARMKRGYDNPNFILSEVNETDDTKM
Assay: Thallium Flux Assay: 1. Seed HEK-hKir1.1 cells (50 μl at 20,000 cells/well) in 384-well PDL coated Microplates2. Allow cells to adhere overnight in humidified 37° C./10% CO2 incubator3. Completely remove cell growth media from microplate and replace with 25 μl loading buffer4. Incubate Microplate at room temperature, protected form light, for 90 min5. Remove loading buffer and replace with 25 μl 1× Assay Buffer±test compound.6. Incubate microplate at room temperature, protected from light, for 30 min7. At FLIPR-Tetra 384: Add stimulant (Thallium/Potassium) solution to microplate and monitor fluorescence. Excitation=400 nm, Emission=460 & 580 nm. Collect data for ˜10 min.Data Calculation—The fluorescence intensity of wells containing 3 μM of a standard control ROMK inhibitor of the present invention is used to define the ROMK-sensitive component of thallium flux. Fluorescence in the presence of test compounds is normalized to control values to provide % fluorescence change. IC50 values represent the concentration of compound that inhibits 50% of the ROMK thallium flux signal.

SMILES	IC50 [nM]
CC1=C(N2CCC3(CCN(CC(O)c4ccc(-n5cnnn5)nc4C)CC3)C2=O)CCC1=O (single isomer, unassigned)	842
CC1=C(N2CCOC3(CCN(C[C@H](O)c4ccc5c(c4C)COC5=O)CC3)C2)CCC1=O	796

These reach a lower IC50. Values come first.

IC50 [nM]	SMILES
285	CC1=C(N2CCOC3(CCN(CC(O)c4ccc(-n5cnnn5)cc4C)CC3)C2)CCC1=O (stereo not given)
167	CC1=C(N2CCOC3(CCN(C[C@H](O)c4ccc(-n5cnnn5)nc4)CC3)C2)CCC1=O
157	CC1=C(N2CCOC3(CCN(CC(O)c4ccc(-n5cnnn5)nc4C)CC3)C2)CCC1=O (stereo not given)
